The record followed here is ChEMBL document CHEMBL1151990, “3-Alkylpyridinium alkaloids from the Pacific sponge Haliclona sp” (J Nat Prod, 2009).

Converted amounts (≈) assume the structure as drawn. Bounds are passed on as bounds.

The test system of assay [1] is J774.A1. Briefly: Cytotoxicity against mouse J774A1 cells by rapid colorimetric assay. In kind it is cell-based.
The subject of assay [2] is HEK293. The assay is described as follows: Cytotoxicity against HEK293 cells by rapid colorimetric assay. Format: cell-based. The note with it: Homo sapiens.
Assay [3] concerns WEHI-164. Briefly: Cytotoxicity against mouse WEHI164 cells by rapid colorimetric assay. Format: functional, cell-based.

The IC50 is the concentration needed to halve the response being measured. A lower IC50 goes with higher potency. For the compound `C1=C\Cc2ccc[n+](c2)CCCCCCCC/C=C\Cc2ccc[n+](c2)CCCCCCCC/C=C\Cc2ccc[n+](c2)CCCCCCCC/1`, the IC50 in assay [1], in assay [2] and in assay [3] was above 20 µg/mL throughout.
`C1=C\Cc2ccc[n+](c2)CCCCCCCC/C=C\Cc2ccc[n+](c2)CCCCCCCC/1`: the IC50 in assay [1], in assay [2] and in assay [3] was above 20 µg/mL throughout.
For `Sc1ncnc2nc[nH]c12` [MERCAPTOPURINE ANHYDROUS], the IC50 in assay [1] is 0.0051 µg/mL (≈ 0.0335 µM); in assay [2], 0.00071 µg/mL (≈ 0.00467 µM); in assay [3], 0.0025 µg/mL (≈ 0.0164 µM).
